Reference: patent US20240208908A1, “CRYSTAL FORM OF PYRIDINE NITROGEN OXIDE COMPOUND AND USE THEREOF” (SHANGHAI JEMINCARE PHARMACEUTICAL CO., LTD, priority 2021, published 2024)
Each block holds one compound with its values, some of them ahead of it.

Assays:
[1] = Pharmacokinetics in rats, single intravenous injection or intragastric administration; assay type: in vivo, male Sprague Dawley rats
Experimental: In this experimental embodiment, in vivo pharmacokinetic evaluation was evaluated in rats by single intravenous injection or intragastric oral administration.
Experimental methods and conditions: male Sprague Dawley rats; all animals were fasted overnight, and were given a single dose of the compound to be tested at 1 mg/kg (intravenous injection, solvent 5% DMSO/10% Solutol/85% Saline) and 10 mg/kg (intragastric administration) respectively, at 5 min, 15 min, 30 min, 1 hr, 2 hr, 4 hr, 6 hr, 8 hr and 24 h after drug administration, blood was collected from the submandibular vein, about 0.20 mL per sample was collected, heparin sodium was used for anticoagulation, and then it was placed on ice after collection and centrifuged within 1 hour to separate the plasma for testing. The concentration of the drug in the plasma was measured by liquid tandem mass spectrometry (LC/MS/MS), and the measured concentration was used to calculate pharmacokinetic parameters.

NaV1.8 = target: T1, NaV1.8 (Homo sapiens, UniProt Q9Y5Y9); assay: Whole-cell patch-clamp, blocking activity on NaV1.8 channel current (CHO cell line stably expressing NaV1.8); assay type: cell-based; conditions: statement in words
T1 construct: expressed in transfected cells
T1 sequence (Q9Y5Y9 whole entry): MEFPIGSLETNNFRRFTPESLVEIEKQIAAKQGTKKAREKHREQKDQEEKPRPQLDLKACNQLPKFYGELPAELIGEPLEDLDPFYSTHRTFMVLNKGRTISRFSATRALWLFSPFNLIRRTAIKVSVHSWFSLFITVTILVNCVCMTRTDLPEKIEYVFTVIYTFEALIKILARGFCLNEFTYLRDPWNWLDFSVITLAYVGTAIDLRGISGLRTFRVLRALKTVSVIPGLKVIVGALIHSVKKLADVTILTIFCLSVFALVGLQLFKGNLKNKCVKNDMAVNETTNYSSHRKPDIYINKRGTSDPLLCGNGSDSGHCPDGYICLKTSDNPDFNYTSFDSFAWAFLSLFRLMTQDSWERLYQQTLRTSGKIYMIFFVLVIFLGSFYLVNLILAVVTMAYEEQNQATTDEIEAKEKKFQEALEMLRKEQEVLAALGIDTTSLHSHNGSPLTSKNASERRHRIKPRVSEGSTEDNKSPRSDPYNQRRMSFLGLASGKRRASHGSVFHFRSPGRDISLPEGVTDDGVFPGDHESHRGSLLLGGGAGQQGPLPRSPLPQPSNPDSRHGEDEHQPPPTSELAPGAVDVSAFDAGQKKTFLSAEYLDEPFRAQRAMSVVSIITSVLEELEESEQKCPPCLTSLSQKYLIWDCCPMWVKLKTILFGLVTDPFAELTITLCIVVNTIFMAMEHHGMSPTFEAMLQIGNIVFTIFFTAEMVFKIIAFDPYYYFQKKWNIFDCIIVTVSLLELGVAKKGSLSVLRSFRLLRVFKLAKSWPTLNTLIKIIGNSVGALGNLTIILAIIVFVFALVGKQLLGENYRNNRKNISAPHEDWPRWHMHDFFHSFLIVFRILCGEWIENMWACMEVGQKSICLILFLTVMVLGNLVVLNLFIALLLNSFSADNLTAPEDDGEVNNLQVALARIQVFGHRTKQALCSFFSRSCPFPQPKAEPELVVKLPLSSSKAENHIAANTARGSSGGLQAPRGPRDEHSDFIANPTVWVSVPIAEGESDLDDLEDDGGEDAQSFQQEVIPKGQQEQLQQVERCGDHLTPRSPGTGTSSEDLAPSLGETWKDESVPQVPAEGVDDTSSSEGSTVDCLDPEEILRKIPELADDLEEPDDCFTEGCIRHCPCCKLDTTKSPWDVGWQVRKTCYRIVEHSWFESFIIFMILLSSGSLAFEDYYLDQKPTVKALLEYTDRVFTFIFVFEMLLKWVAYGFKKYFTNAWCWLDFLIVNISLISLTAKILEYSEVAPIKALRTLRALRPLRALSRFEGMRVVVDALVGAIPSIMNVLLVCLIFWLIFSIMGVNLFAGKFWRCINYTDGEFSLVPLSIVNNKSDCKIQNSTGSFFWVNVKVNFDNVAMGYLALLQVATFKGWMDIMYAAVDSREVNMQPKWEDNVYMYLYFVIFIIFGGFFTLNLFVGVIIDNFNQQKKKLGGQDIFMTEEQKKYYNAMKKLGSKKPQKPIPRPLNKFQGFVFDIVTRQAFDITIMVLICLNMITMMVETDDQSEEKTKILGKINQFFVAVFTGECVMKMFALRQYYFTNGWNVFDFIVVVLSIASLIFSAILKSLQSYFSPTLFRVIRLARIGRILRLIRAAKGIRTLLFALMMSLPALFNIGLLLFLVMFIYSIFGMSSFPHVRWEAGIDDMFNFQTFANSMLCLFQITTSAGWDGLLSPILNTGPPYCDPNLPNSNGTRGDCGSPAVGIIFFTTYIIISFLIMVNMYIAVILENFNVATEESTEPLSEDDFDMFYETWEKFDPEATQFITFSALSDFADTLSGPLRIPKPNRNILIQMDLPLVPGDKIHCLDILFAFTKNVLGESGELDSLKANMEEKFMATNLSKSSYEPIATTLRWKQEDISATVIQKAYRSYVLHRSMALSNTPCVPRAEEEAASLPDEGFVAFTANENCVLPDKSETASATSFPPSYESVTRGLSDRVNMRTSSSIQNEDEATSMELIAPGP
Experimental: • 1. Test method: the patch-clamp technique was used to detect the effects of compound on the voltage-gated sodium channels (NaV) 1.1 to 1.8 subtype currents
• 1) the specific information of CHO cell line stably expressing NaV1.8 channel was as follows: SCN10A: NM_006514 • 2) Cells were cultured in HAM'S/F-12 medium containing 10% fetal bovine serum, 10 μg/mL Blasticidin, 200 μg/mL Hygromycin B and 100 μg/mL Zeocin at 37° C. and 5% carbon dioxide concentration. • 3) Cell passage: the old medium was removed and washed once with PBS, and then 1 mL of 0.25%-Trypsin-EDTA solution was added and incubated at 37° C. for 1.5 minutes. When the cells were detached from the bottom of the plate, 5 mL of 37° C. prewarmed complete medium was added. […]
Double-pulse mode was performed by two 0 mV depolarization test pulses (TP1 and TP2) for 50 ms. […] Data acquisition was repeated at 20 s intervals and the current peaks at two test pulses were measured.
While the NaV channel current recorded in the whole cell was stable, the drug was administered, and each drug concentration was applied for 5 minutes (or the current is stabilized) and then the next concentration was detected; each test compound was detected at multiple concentrations. […] The current detected by each cell in the external fluid without the compounds was used as its own control group. Multiple cells were detected independently and repeatedly. […]

[2] = Suspension competition test of crystal forms; assay type: physicochemical
Experimental: In order to further study the transformation relationship between the free anhydrous crystal form and the hydrate crystal form, a suspension competition test was carried out on the anhydrous crystal form B/G and the hydrate crystal form A. Firstly, the suspension competition test between […] B and G was set up at 5° C., room temperature and 50° C. in ACN and room temperature in EtOAc. The specific steps are as follows: 1) saturated solution of the free state was prepared in different solvent systems at corresponding temperatures; 2) the corresponding free crystal form sample was added into 0.5 mL of the saturated solution to form a suspension; 3) the mixture was magnetically stirred under corresponding temperature conditions; 4) after stirring for 1 to 5 days, the solid was separated for XRPD testing.
Therefore, a suspension competition test of stable anhydrous crystal form B at room temperature and hydrate form A with different water activities (aw=0/0.2/0.4/0.6/0.8/1.0) of ACN/H2O at room temperature was set up. […] Reference source not found.

[3] = Solid-state stability experiment (XRPD, HPLC); assay type: physicochemical; conditions: for Crystal form variation: XRPD
Experimental: The stability test in the high-performance liquid chromatography (IPLC) test used in the present disclosure is tested by an Agilent 1260 high-performance liquid chromatograph, and the analytical conditions are shown in Table 11.
In order to evaluate the solid stability of the free anhydrous crystal form B, an appropriate amount of the sample was respectively weighed, placed at 60° C. for 24 hours, and exposed at 25° C./60% RH and 40° C./75[…] for one week. The crystal changes of the solid samples placed under different conditions were tested by XRPD, and the chemical stability was evaluated by HPLC.

[4] = 25° C./60% RH/exposure, one week
[5] = 40° C./75% RH/exposure, one week
[6] = statement in words, all test conditions

F ([1]; rat, intragastric 10 mg/kg): 72.59%
pharmacokinetic absorption in rats ([1]; statement in words): good pharmacokinetic absorption
blocking effect on NaV1.8 channel activity (NaV1.8): obvious blocking effect
SMILES: O=C(Nc1ccc[n+]([O-])c1)c1cc(Cl)c(Cl)cc1Oc1ccc(OC(F)(F)F)cc1 [Compound of formula (I)]

crystal form obtained in suspension competition ([2]; ACN/H2O, room temperature, aw=0 to 0.4): anhydrous crystal form B was obtained
crystal form obtained in suspension competition ([2]; ACN/H2O, room temperature, aw=0.6 to 1 (pure water)): hydrate crystal form A was obtained
Competition test result (crystal form obtained) ([2]; test 22-A1, ACN (aw to 0), room temperature): Free crystal form B
Competition test result (crystal form obtained) ([2]; test 22-A2, ACN/H2O (981:19, aw to 0.2), room temperature): Free crystal form B
Competition test result (crystal form obtained) ([2]; test 22-A3, ACN/H2O (957:43, aw to 0.4), room temperature): Free crystal form B
Competition test result (crystal form obtained) ([2]; test 22-A4, ACN/H2O (924:76, aw to 0.6), room temperature): Free crystal form B
Competition test result (crystal form obtained) ([2]; test 22-A5, ACN/H2O (87:13, aw to 0.8), room temperature): Free crystal form B
Competition test result (crystal form obtained) ([2]; test 22-A6, H2O (aw to 1.0), room temperature): Free crystal form B
SMILES: O=C(Nc1ccc[n+]([O-])c1)c1cc(Cl)c(Cl)cc1Oc1ccc(OC(F)(F)F)cc1 [Crystal form A/B]

Competition test result (crystal form obtained) ([2]; test 22-B1, ACN (aw to 0), 5° C.): Free crystal form B
Competition test result (crystal form obtained) ([2]; test 22-B2, ACN (aw to 0), room temperature): Free crystal form B
Competition test result (crystal form obtained) ([2]; test 22-B3, ACN (aw to 0), 50° C.): Free crystal form B
Competition test result (crystal form obtained) ([2]; test 22-B4, EtOAc (aw to 0), room temperature): Free crystal form B
SMILES: O=C(Nc1ccc[n+]([O-])c1)c1cc(Cl)c(Cl)cc1Oc1ccc(OC(F)(F)F)cc1 [Crystal form B/G]
crystal form obtained in suspension competition ([2]; ACN at 5° C., room temperature, 50° C. and EtOAc at room temperature): only the free crystal form B was obtained

stability and druggability compared with hydrate crystal form ([2]; conclusion in words): better stability
Purity [3, 4]: 99.90 area %
Relative to initial purity [3, 4]: 99.99%
Crystal form variation [3, 4]: Constant
Purity [3, 5]: 99.90 area %
Relative to initial purity [3, 5]: 99.99%
Crystal form variation [3, 5]: Constant
Purity ([3]; 60° C./closed, 24 hours): 99.91 area %
Relative to initial purity ([3]; 60° C./closed, 24 hours): 100.00%
Crystal form variation ([3]; 60° C./closed, 24 hours): Constant
Purity ([3]; Start): 99.91 area %
HPLC purity under the test conditions [3, 6]: not decreased obviously
crystal form change under the test conditions [3, 6]: not changed
SMILES: O=C(Nc1ccc[n+]([O-])c1)c1cc(Cl)c(Cl)cc1Oc1ccc(OC(F)(F)F)cc1 [Free crystal form B]
